Results: the METLIN SMRT retention time set (Domingo-Almenara et al. 2019)

Assay: gradient 5% acetonitrile 3 min, to 50% in 2 min, to 85% in 15 min, held 3 min, 100 µL/min
Conditions: column: Zorbax Extend-C18 2.1 x 50 mm; eluents: water / acetonitrile, 0.1% formic acid
Outline: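 Mixtures of ~100 pure standards were chromatographed on a Zorbax Extend-C18 column (2.1 × 50 mm, 1.8 μm) at 100 μL/min using water and acetonitrile, each with 0.1% formic acid. Detection used a quadrupole time-of-flight mass spectrometer in positive and negative ionization mode, and data collection spanned 3 months. Retention time was obtained from adduct peaks picked computationally and each checked manually.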

Row | Compound | RP-LC retention time
1 | COc1ccc(-c2ncc3c(=O)n(Cc4ccccc4C)c(=O)n(C)c3n2)cc1 | 679 s
2 | O=C(CSc1nc(-c2ccccc2)cs1)NCc1ccco1 | 839 s
3 | Cc1ccc(Nc2c(-c3ccc(N(C)C)cc3)nc3ccc(Cl)cn23)cc1 | 818 s
4 | CC(C)n1c(N2CCCN(C(=O)c3ccc(F)c(F)c3)CC2)cc(=O)n(C(C)C)c1=O | 859 s
5 | O=C(Nc1ccc(-c2nc(-c3ccccc3)co2)cc1)C1CCCCC1 | 1210 s
6 | Cc1nc(C)c(-c2cc(C(=O)N3CCN(c4ccc(F)cc4)CC3)n[nH]2)s1 | 690 s
7 | CC1CCN(C(=O)C2c3ccccc3CCN2CC(=O)Nc2ccc(F)cc2Cl)CC1 (stereo not drawn) | 936 s
8 | COc1ccc(NC(=O)C2CCc3sc(C(=O)N4CCCC4)cc3C2)cc1OC (stereo not drawn) | 680 s
9 | CCN1C(=O)C2(CCN(S(=O)(=O)c3ccc(C)cc3)CC2)c2ccccc21 | 1050 s
10 | O=C(Nc1ccc(Cl)cc1)C1CC(=O)N(CCc2c[nH]c3ccc(F)cc23)C1 (stereo not drawn) | 857 s
11 | CCCCN(C)C(=O)CN1C(=O)C2CCCCN2c2ccc(S(=O)(=O)N(CC)CC)cc21 (stereo not drawn) | 1010 s
12 | CCn1nnc2ccc(-c3noc(Cc4ccccc4C)n3)cc21 | 1030 s
13 | CCn1ccc(C(=O)N2CCC(Nc3ncnc4c3CCC4)CC2)n1 | 553 s
14 | CC(C)CNC(=O)N1CCC(CCOc2cccnc2)CC1 | 605 s
15 | Cc1ccc2c(C(=O)N3CCC(C)CC3)cc(NC(=O)C3CCC3)cc2n1 | 652 s
16 | O=S(=O)(Cc1ccccc1)N1CCCC(c2nn[nH]n2)C1 (stereo not drawn) | 706 s
17 | Cc1ccc(S(=O)(=O)N2CCc3c(c(-c4nnc(-c5ccccc5)o4)nn3C)C2)c(C)c1 | 1020 s
18 | COc1cc(-c2nc3ccc(Cl)cn3c2Nc2ccc3c(c2)OCO3)ccc1O | 679 s
19 | Cn1nc(C(=O)N2CCCC2)c2c1CCN(C(=O)Nc1ccccc1Br)C2 | 737 s
20 | CCc1ccc(NC(=O)Cn2c(C)nc3cc4c(cc32)OCCO4)cc1 | 668 s
21 | Brc1ccc(Nc2c(-c3ccc4c(c3)OCO4)nc3cnccn23)cc1 | 921 s
22 | CC(O)Cn1cnc2c1c(=O)n(C)c(=O)n2C (stereo not drawn) | 1100 s

Row | Compound | RP-LC retention time
23 | CCCNC(=O)C1CCCN(c2nc3ncn(CC(=O)Nc4cc(F)ccc4C)c(=O)c3s2)C1 (stereo not drawn) | 705 s
24 | Cc1ccccc1S(=O)(=O)N1CCC2(CC1)NCCN=C2NCc1cc(F)cc(F)c1 | 730 s
25 | CCC1(O)CCC12CCN(C(=O)C1CC1)CC2 (stereo not drawn) | 678 s
26 | O=S(=O)(c1ccc(Cl)cc1)c1ccc(N2CCN(c3ccccn3)CC2)nn1 | 651 s
27 | O=C(Nc1ccccc1F)c1c(O)c2cccnc2n(-c2ccc(F)cc2)c1=O | 1220 s
28 | Cc1cccc(CNC(=O)Cn2c(C)cc(-c3nnc(-c4ccccc4)o3)c2C)c1 | 921 s
29 | Cc1nn(-c2ccc(C(=O)NC(C)C)cc2)c2c1C(=O)CC(C)(C)C2 | 775 s
30 | O=C(CCC(=O)N1CC2CCCN2c2ccccc21)NCCN1CCCCCC1 (stereo not drawn) | 646 s
31 | Cn1nc2n(c1=O)CCN(C(=O)CC1=CCCCC1)CC2 | 656 s
32 | O=C(Cc1ccc(NC(=O)Nc2ccccc2Cl)cc1)NCC(F)(F)F | 696 s
33 | O=C(NCc1ccc2c(c1)OCO2)c1nnc2n(c1=O)CCN2c1ccc(F)cc1 | 683 s
34 | CC(Cc1ccco1)NC(=O)c1cc(S(=O)(=O)N2CCCCCC2)ccc1Cl (stereo not drawn) | 1010 s
35 | COc1ccc(CCNC(=O)c2cc3c(=O)n(C)c(=O)n(C)c3s2)cc1OC | 668 s
36 | CC(C)n1c(=O)sc2cc(S(=O)(=O)N3CCC(C(=O)NCCc4ccccc4)CC3)ccc21 | 985 s
37 | Cc1cccc(-n2c(Cc3cccn3C)nnc2SCC(=O)NCC2CCCO2)c1C (stereo not drawn) | 776 s
38 | CCN1CCC(Nc2ccnc3cc(Cl)ccc23)CC1 | 588 s
39 | CCc1ccc(NC(=O)Cn2cnc3nc(N4CCCC(C(=O)NC(C)C)C4)sc3c2=O)cc1 (stereo not drawn) | 710 s
40 | Cc1cc(N2CCN(S(=O)(=O)c3ccccc3Cl)CC2)nc(NC2CCCCC2)n1 | 838 s
41 | Clc1ccc(-c2ccc(CNC3CC3)o2)c(Cl)c1 | 716 s
42 | COc1cccc(S(=O)(=O)N2[C@H]3CC[C@@H]2c2cnc(C)nc2C3)c1 | 692 s
43 | O=C(Nc1ccccc1F)N1CCC(n2cnc3c(Cl)cccc3c2=O)CC1 | 828 s
44 | CCN1CCN(C(=O)C2Cn3cccc3C(=O)N2CC(C)C)CC1 (stereo not drawn) | 573 s

Row | Compound | RP-LC retention time
45 | Cc1cc(=O)n(CC(=O)Nc2ccccc2F)c(N2CCCC2)n1 | 616 s
46 | Nc1nc(Nc2ccccc2F)nc2cccc(F)c12 | 615 s
47 | O=C(NC1CCCCCC1)C1CCN(Cc2cc3ccccc3n2Cc2ccccc2)CC1 | 845 s
48 | CC(C)c1ccc(S(=O)(=O)N2CCC(C(=O)NCCc3csc(-c4ccccc4)n3)CC2)cc1 | 1080 s
49 | CCNc1cc(N2CCC(CCC(=O)NCc3cccs3)CC2)ncn1 | 627 s
50 | Cn1cnc(S(=O)(=O)N2CCCN(S(=O)(=O)c3cccc4nsnc34)CCNC(=O)CC2c2ccccc2)c1 (stereo not drawn) | 702 s
51 | Cc1nnc2cc(N3CCN(C(=O)Nc4cccc(Cl)c4)CC3)cnn12 | 596 s
52 | COc1ccc(CC(=O)Nc2nc3ccc(S(=O)(=O)NC(C)C)cc3s2)cc1OC | 730 s
53 | Cc1ccccc1CC(=O)Nc1nnc(SCc2nnc(-c3ccccc3)o2)s1 | 908 s
54 | CSc1ccc(CNC(=O)c2cn3cc(Cl)ccc3n2)cc1 | 895 s
55 | COc1ccccc1-n1ccn2cc(-c3ccc(F)cc3F)nc2c1=O | 844 s
56 | Cn1ncc(N2CCCC(CC(=O)NCc3cccs3)C2)cc1=O (stereo not drawn) | 676 s
57 | COc1ccc(-c2cc(=O)c3cc(OC(=O)c4ccncc4)ccc3o2)cc1 | 832 s
58 | Cc1c2cnn(CC(=O)NCc3ccc4c(c3)OCO4)c(=O)c2c(C)n1Cc1cccc(Cl)c1 | 880 s
59 | O=C(Cn1cccc(-c2nc(-c3ccccc3)no2)c1=O)Nc1ccccc1Cl | 885 s
60 | CCOc1ccc(CNC(=O)CCc2nnc3c4cc(-c5ccccc5)nn4ccn23)cc1 | 785 s
61 | Cc1cc(=O)n2c(-c3ccc(NC(=O)C(C)Oc4ccc5c(c4)OCO5)cc3)csc2n1 (stereo not drawn) | 757 s
62 | CC(CCc1ccccc1)NC(=O)Cn1nc2c(Oc3ccccc3)nccn2c1=O (stereo not drawn) | 880 s
63 | Cc1[nH]c(C)c(S(=O)(=O)N2CCC(C(=O)Nc3ccccc3F)CC2)c1C(=O)N1CCCC1 | 720 s
64 | CNC(=O)N1CCCC(c2cccc(C(=O)NCc3ccc(C(F)(F)F)cc3)c2)C1 (stereo not drawn) | 853 s
65 | O=C(COc1ccc(F)cc1)NCC1CCC(c2nc3ccccc3[nH]2)CC1 (stereo not drawn) | 578 s
66 | Cc1ccc(F)cc1S(=O)(=O)N(C)CC1CCOC1 (stereo not drawn) | 836 s

Row | Compound | RP-LC retention time
67 | CCc1nnc(-c2ccc3ccn(CC(=O)NCc4ccccn4)c3c2)o1 | 629 s
68 | Cc1ccc(CNC(=O)N2CCC[C@@H]2C(=O)NCc2csc(-c3ccccc3)n2)cc1 | 824 s
69 | Cc1cc(SCC(=O)Nc2ccc3c(c2)OCO3)nc(-c2cnccn2)n1 | 680 s
70 | COc1ccc(-n2cc(C(=O)OCCc3ccccn3)c3cc(OC)c(OC)cc3c2=O)cc1 | 681 s
71 | CC(=O)Nc1ccc(C(=O)NCc2ccc(Br)cc2)c(N2CCOCC2)c1 | 785 s
72 | COc1ccc(-c2noc(-c3cccn4c(=O)c5ccccc5nc34)n2)cc1OC | 994 s
73 | O=C1Nc2ccc(I)cc2C1=Cc1cc(Br)c(O)c(Br)c1 | 1090 s
74 | O=C(CS(=O)(=O)Cc1ccccc1)NCc1ccccc1 | 741 s
75 | CC(=O)NC(C)C(=O)N1CCC(CCOc2cccnc2)CC1 (stereo not drawn) | 567 s
76 | O=C(Cc1nnc(-c2ccncc2)o1)NCc1ccc(C(F)(F)F)cc1 | 718 s
77 | COc1cccc(OC)c1C(=O)Nc1ccc2c(c1)Sc1ncccc1C(=O)N2C | 706 s
78 | O=C(Cn1nc(N2CCSCC2)c2ccccc2c1=O)Nc1ccccc1 | 890 s
79 | CS(=O)(=O)N1CCC(C(=O)NC2CCCC(OC(=O)Nc3ccc(F)cc3)C2)CC1 (stereo not drawn) | 704 s
80 | CN1CCC(NC(=O)C2CCc3sc(C(=O)N4CCCCC4)cc3C2)CC1 (stereo not drawn) | 587 s
81 | O=C(Cc1csc(-c2ccccc2)n1)Nc1nc(-c2ccc(F)cc2)cs1 | 1140 s
82 | CCOC(=O)c1c(NC(=O)c2ccc(S(=O)(=O)N(C)C)cc2)sc(C)c1C | 1170 s
83 | CCCN(CC1CCOC1)S(=O)(=O)c1ccc(C)c(Cl)c1 (stereo not drawn) | 1050 s
84 | CCS(=O)(=O)N1CC(=O)N(c2cccc(F)c2)C(C)(C(=O)NC2CCCCC2)C1 (stereo not drawn) | 817 s
85 | COc1cccc(-c2ccc(=O)n(Cc3nc(-c4cccc(OC)c4)no3)n2)c1 | 682 s
86 | COc1ccc(N2CCN(c3cc(SCC(=O)NCC4CCCO4)ncn3)CC2)cc1 (stereo not drawn) | 713 s
87 | O=C(Cn1nc2c3sc(N4CCCCC4)nc3ncn2c1=O)Nc1ccc(F)c(F)c1 | 851 s
88 | COc1ccc(OC)c(NC(=O)Cn2cccc(-c3nc(-c4ccc(F)cc4)no3)c2=O)c1 | 897 s
